Source: article PMC8162404, “Proteomimetic surface fragments distinguish targets by function” (Chemical Science, 2020)

What was measured:
CaM [1] = target: T1, CaM (Bos taurus, UniProt P62157); assay: Pull-down assay with immobilized protein and LSM libraries; format: binding, bovine; conditions: H14 library; 1:2 stoichiometry assumed; read-out: Surface mapping KD (apparent)
T1 construct: made in house; host or cells: E. coli BL21 (DE3)
Procedure, shortened: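 CaM buffer was 20 mM HEPES pH 7.4, 150 mM NaCl, 5 mM CaCl2. LSM sublibrary members ([…]) incubated 30 min, RT, with equimolar His-tagged protein on Co-NTA resin. HPLC-MS measured unbound probes; bound fraction relative to resin-only background gave dissociation constants.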

Gal-1 [2] = target: T2, Gal-1 (Homo sapiens, UniProt P09382); assay: as above; format: binding; conditions: H14 library; 1:1 binding assumed; read-out: Surface mapping KD (apparent)
T2 construct: made in house; host or cells: E. coli BL21(DE3)
T2 sequence (P09382 whole entry): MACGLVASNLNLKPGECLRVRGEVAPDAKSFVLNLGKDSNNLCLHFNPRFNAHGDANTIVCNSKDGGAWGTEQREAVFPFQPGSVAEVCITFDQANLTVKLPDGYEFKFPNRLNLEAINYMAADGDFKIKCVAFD
Procedure, shortened: (§1)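 Buffers were HEPES pH 7.4 with 150 mM NaCl, plus 1 mM TCEP and 1 mM CaCl2 (50 mM HEPES) for S100A4 and S100B, 1 mM TCEP for Gal-1, and no additive for RecQ-WH. Immobilized protein at 64 µM was equilibrated 30 min with the LSM sublibrary, and unbound probes were measured by LC-MS.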

S100A4 = target: T3, S100A4 (Homo sapiens, UniProt P26447); assay: as above; format: binding; conditions: H14 library; 1:1 binding assumed; read-out: Surface mapping KD (apparent)
T3 construct: made in house; host or cells: Escherichia coli BL21(DE3)
T3 sequence (P26447 whole entry): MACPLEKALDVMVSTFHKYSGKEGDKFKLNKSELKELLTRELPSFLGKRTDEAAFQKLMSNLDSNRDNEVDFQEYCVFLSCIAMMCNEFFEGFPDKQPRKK
Procedure, shortened: as §1

S100B [3] = target: T4, S100B (Homo sapiens, UniProt P04271); assay: as above; format: binding; conditions: H14 library; 1:1 binding assumed; read-out: Surface mapping KD (apparent)
T4 construct: made in house; host or cells: Escherichia coli BL21(DE3)
T4 sequence (P04271 1-92): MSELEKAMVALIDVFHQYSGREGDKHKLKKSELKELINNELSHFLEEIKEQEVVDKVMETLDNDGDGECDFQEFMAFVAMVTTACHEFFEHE
Procedure, shortened: as §1

RecQ-WH [4] = target: T5, RecQ-WH (Escherichia coli, UniProt P15043); assay: as above; parameters: species or system E. coli; conditions: H14 library; 1:1 binding assumed; read-out: Surface mapping KD (apparent)
T5 construct: coding for residues 408– 523 of E. coli RecQ; made in house; host or cells: E. coli BL21(DE3)
T5 sequence (P15043 408-523): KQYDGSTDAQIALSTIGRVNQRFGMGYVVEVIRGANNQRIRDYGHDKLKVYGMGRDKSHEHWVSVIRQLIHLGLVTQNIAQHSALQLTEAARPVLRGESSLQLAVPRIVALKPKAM
Procedure, shortened: as §1

S100B [5] = target: T4, S100B; assay: Competition pull-down with native ligand RSK1 (689–735); format: binding; conditions: H14 library; competitor peptide 200 µM; read-out: Surface mapping KD (apparent), competition
RecQ-WH [6] = target: T5, RecQ-WH; assay: Competition pull-down with native ligand SSB-Ct8; format: binding, E. coli; conditions: H14 library; competitor peptide 200 µM; read-out: Surface mapping KD (apparent), competition
Gal-1 [7] = target: T2, Gal-1; assay: Competition pull-down with lactose; format: binding; conditions: H14 library; lactose 10 mM; read-out: Surface mapping KD (apparent), competition
Procedure, shortened: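 His6-tagged proteins immobilized on Co-NTA resin at 64 µM final with 64-member LSM foldamer sublibraries (1 M each, as printed) in pH 7.4 HEPES/NaCl buffers (Ca2+/TCEP per target), 30 min RT; competitor peptides 200 µM final, lactose 10 mM for Gal-1. Bound fractions from LC-MS loss vs protein-free resin; KD assuming 1:1 binding.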

CaM [8] = target: T1, CaM; assay: Competition pull-down with native ligand TRPV1-Ct15; format: binding, bovine; conditions: H14 library; competitor peptide 200 µM; read-out: Surface mapping KD (apparent), competition

| SMILES | Kd (CaM [1]) [µM] | Kd (Gal-1 [2]) [µM] | Kd (S100A4) [µM] | Kd (S100B [3]) [µM] | Kd (RecQ-WH [4]) [µM] | Kd (S100B [5]) [µM] | Kd (RecQ-WH [6]) [µM] | Kd (Gal-1 [7]) [µM] | Kd (CaM [8]) [µM] |
| --- | --- | --- | --- | --- | --- | --- | --- | --- | --- |
| C[C@@H](CC(=O)N[C@H]1CCCC[C@@H]1C(=O)N[C@H]1CCCC[C@@H]1C(=O)N[C@H](CC(=O)N[C@H]1CCCC[C@@H]1C(N)=O)Cc1ccccc1)NC(=O)[C@H]1CCCC[C@@H]1N [H14 AF] | 5 | 121 | 13 | 45 | 483 | 354 | 454 | 333 | – |
| NC(=O)[C@H]1CCCC[C@@H]1NC(=O)C[C@H](Cc1ccccc1)NC(=O)[C@H]1CCCC[C@@H]1NC(=O)[C@H]1CCCC[C@@H]1NC(=O)C[C@H](CC(=O)O)NC(=O)[C@H]1CCCC[C@@H]1N [H14 DF] | – | – | – | 339 | 288 | 130 | – | 388 | 220 |
| C[C@@H](CC(=O)N[C@H]1CCCC[C@@H]1C(N)=O)NC(=O)[C@H]1CCCC[C@@H]1NC(=O)[C@H]1CCCC[C@@H]1NC(=O)C[C@H](Cc1ccccc1)NC(=O)[C@H]1CCCC[C@@H]1N [H14 FA] | 3 | 130 | 58 | 253 | 282 | 330 | – | 151 | 309 |
| N=C(N)NCCC[C@@H](CC(=O)N[C@H]1CCCC[C@@H]1C(N)=O)NC(=O)[C@H]1CCCC[C@@H]1NC(=O)[C@H]1CCCC[C@@H]1NC(=O)C[C@H](Cc1ccccc1)NC(=O)[C@H]1CCCC[C@@H]1N [H14 FR] | 3 | 222 | 124 | 56 | 447 | 406 | – | 208 | 290 |
| NC(=O)[C@H]1CCCC[C@@H]1NC(=O)C[C@H](Cc1ccc(O)cc1)NC(=O)[C@H]1CCCC[C@@H]1NC(=O)[C@H]1CCCC[C@@H]1NC(=O)C[C@H](Cc1ccccc1)NC(=O)[C@H]1CCCC[C@@H]1N [H14 FY] | 3 | 214 | 57 | 96 | 92 | 146 | 231 | 395 | – |
| CC(C)C[C@@H](CC(=O)N[C@H]1CCCC[C@@H]1C(=O)N[C@H]1CCCC[C@@H]1C(=O)N[C@H](CC(=O)N[C@H]1CCCC[C@@H]1C(N)=O)Cc1ccc(O)cc1)NC(=O)[C@H]1CCCC[C@@H]1N [H14 LY] | 10 | 231 | 26 | 85 | 239 | 154 | – | – | 455 |
| CSCC[C@@H](CC(=O)N[C@H]1CCCC[C@@H]1C(=O)N[C@H]1CCCC[C@@H]1C(=O)N[C@H](CC(=O)N[C@H]1CCCC[C@@H]1C(N)=O)Cc1ccccc1)NC(=O)[C@H]1CCCC[C@@H]1N [H14 MF] | 2 | 223 | 23 | 85 | 304 | 316 | – | 181 | 133 |
| CSCC[C@@H](CC(=O)N[C@H]1CCCC[C@@H]1C(N)=O)NC(=O)[C@H]1CCCC[C@@H]1NC(=O)[C@H]1CCCC[C@@H]1NC(=O)C[C@H](CCSC)NC(=O)[C@H]1CCCC[C@@H]1N [H14 MM] | 16 | 183 | 14 | 174 | 455 | 276 | – | – | 448 |
| CSCC[C@@H](CC(=O)N[C@H]1CCCC[C@@H]1C(=O)N[C@H]1CCCC[C@@H]1C(=O)N[C@H](CC(=O)N[C@H]1CCCC[C@@H]1C(N)=O)Cc1c[nH]c2ccccc12)NC(=O)[C@H]1CCCC[C@@H]1N [H14 MW] | 2 | 141 | 41 | 44 | 197 | 131 | – | 172 | 208 |
| CSCC[C@@H](CC(=O)N[C@H]1CCCC[C@@H]1C(=O)N[C@H]1CCCC[C@@H]1C(=O)N[C@H](CC(=O)N[C@H]1CCCC[C@@H]1C(N)=O)Cc1ccc(O)cc1)NC(=O)[C@H]1CCCC[C@@H]1N [H14 MY] | 15 | 98 | 90 | 176 | 263 | 330 | – | 133 | 402 |
